Results published in patent US20240025862A1, “SUBSTITUTED N-PHENYLURACILS AND SALTS THEREOF, AND USE THEREOF AS HERBICIDAL ACTIVE SUBSTANCES” (Bayer Aktiengesellschaft, priority 2020, published 2024).

Columns and labels:
Assay type in all cases: in vivo
[1] = tested on: Pharbitis purpurea (PHBPU); assay: Post-emergence herbicidal action, greenhouse pot test
How it was run: (§1)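 Activity was scored by eye about 3 weeks after treatment against untreated plants, where 100% means dead plants and 0% means no difference. Plants at the one-leaf stage received a foliar spray of WP or EC formulations in water plus 0.5% additive (600 l/ha, up to 20 g/ha). Plants were grown in sandy loam pots in a greenhouse for 2–3 weeks before spraying.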

Hordeum murinum (HORMU) = assay: as above; conditions: rated visually after about 3 weeks vs untreated controls, 100% = plants have died
How it was run: as §1

Veronica persica (VERPE) = assay: as above
How it was run: as §1

[2] = tested on: Abutilon theophrasti (ABUTH); assay: as above
How it was run: as §1

[3] = tested on: Amaranthus retroflexus (AMARE); assay: as above
How it was run: as §1

Viola tricolor (VIOTR) = assay: as above
How it was run: as §1

[4] = tested on: Polygonum convolvulus (POLCO); assay: as above
How it was run: as §1

Avena fatua (AVEFA) = assay: as above
How it was run: as §1

Stellaria media (STEME) = assay: as above
How it was run: as §1

Zea mays (ZEAMX) = assay: Post-emergence crop plant compatibility, greenhouse pot test; conditions: 1.25 g/ha, vs untreated controls
How it was run: (§2)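 Visual % damage vs untreated controls, scored ~3 weeks post-spray (100% = dead, 0% = as control). Plants in sandy loam, greenhouse; treated at one-leaf stage, 2–3 wk after sowing. WP/EC, aqueous, 0.5% additive, 600 l/ha. Suffixes a/b/c = different dosages.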

Brassica napus (BRSNW) = assay: as above; conditions: 1.25 g/ha, vs untreated controls
How it was run: as §2

[5] = tested on: Triticum aestivum (TRZAS); assay: as above; conditions: vs untreated controls
How it was run: as §2

[6] = tested on: Matricaria inodora (MATIN); assay: Post-emergence herbicidal action, greenhouse pot test (also comparative test C)
How it was run: (§3)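 Greenhouse pot plants in sandy loam were sprayed post-emergence at the one-leaf stage (2–3 weeks after sowing) with WP or EC formulations plus 0.5% additive at 600 l/ha water. Activity was rated visually after about 3 weeks versus untreated controls (100% = dead, 0% = like control); rates were 20 g/ha or less, and 5 g/ha or less in the comparative test.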

Setaria viridis (SETVI) = assay: as above
How it was run: as §3

[7] = tested on: Echinochloa crus-galli (ECHCG); assay: as above
How it was run: as §3

[8] = tested on: Alopecurus myosuroides (ALOMY); assay: as above
How it was run: as §3

Oryza sativa (ORYSA) = assay: Post-emergence crop plant compatibility, greenhouse pot test (also comparative test C); conditions: vs untreated controls
How it was run: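 Visual damage versus untreated plants (0% = like control, 100% = plants died) was scored about 3 weeks after a post-emergence spray in greenhouse pots. Treatment: one-leaf stage, WP or EC in water at 600 l/ha with 0.5% additive; a/b/c mark different dosages on the same crop.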

Glycine max (GLXMA) = assay: Post-emergence crop plant compatibility, greenhouse pot test
How it was run: as §2

[9] = 1.25 g/ha, rated visually after about 3 weeks vs untreated controls, 100% = plants have died
[10] = 5 g/ha, rated visually after about 3 weeks vs untreated controls, 100% = plants have died
[11] = 20 g/ha, rated visually after about 3 weeks vs untreated controls, 100% = plants have died
[12] = Ipomoea purpurea, 504 h, read-out: Post-emergence action against PHBPU in %
[13] = Veronica persica, 504 h, read-out: Post-emergence action against VERPE
[14] = Viola tricolor, 504 h, read-out: Post-emergence action against VIOTR
[15] = Fallopia convolvulus, 504 h, read-out: Post-emergence action against POLCO in %
[16] = Tripleurospermum inodorum, 504 h, read-out: Post-emergence action against MATIN in %
[17] = Setaria viridis, 504 h, read-out: Post-emergence action against SETVI in %

Cn1c(C(F)(F)F)cc(=O)n(-c2cc(Sc3ccccc3OCC(=O)OCC3CCCO3)c(Cl)cc2F)c1=O (racemic) [I.1-71]
Post-emergence action against PHBPU in % ([1]; dosage 1.25 g/ha): 100%
Post-emergence action against PHBPU in % ([1]; dosage 5 g/ha): 100%
Post-emergence action against PHBPU in % ([1]; dosage 20 g/ha): 100%
Post-emergence action at 5 g/ha against HORMU in % (Hordeum murinum (HORMU); 5 g/ha): 80%
Post-emergence action at 20 g/ha against HORMU in % (Hordeum murinum (HORMU)): 90%
Post-emergence action against VERPE (Veronica persica (VERPE); 1.25 g/ha): 100%
Post-emergence action against VERPE (Veronica persica (VERPE); 5 g/ha): 100%
Post-emergence action against VERPE (Veronica persica (VERPE); 20 g/ha): 100%
Post-emergence action at 1.25 g/ha against ABUTH in % [2, 9]: 100%
Post-emergence action at 5 g/ha against ABUTH in % [2, 10]: 100%
Post-emergence action at 20 g/ha against ABUTH in % [2, 11]: 100%
Post-emergence action at 1.25 g/ha against AMARE in % [3, 9]: 100%
Post-emergence action at 5 g/ha against AMARE in % [3, 10]: 100%
Post-emergence action at 20 g/ha against AMARE in % [3, 11]: 100%
Post-emergence action against VIOTR (Viola tricolor (VIOTR); 1.25 g/ha): 100%
Post-emergence action against VIOTR (Viola tricolor (VIOTR); 5 g/ha): 100%
Post-emergence action against VIOTR (Viola tricolor (VIOTR); 20 g/ha): 100%
Post-emergence action against POLCO in % ([4]; dosage 1.25 g/ha): 100%
Post-emergence action against POLCO in % ([4]; dosage 5 g/ha): 100%
Post-emergence action against POLCO in % ([4]; dosage 20 g/ha): 100%
Post-emergence action at 20 g/ha against AVEFA in % (Avena fatua (AVEFA); [11]): 80%
Post-emergence action against STEME (Stellaria media (STEME); 1.25 g/ha): 90%
Post-emergence action against STEME (Stellaria media (STEME); 5 g/ha): 100%
Post-emergence action against STEME (Stellaria media (STEME); 20 g/ha): 100%
Post-emergence action against ZEAMX (crop plant compatibility) (Zea mays (ZEAMX)): 20%
Post-emergence action against BRSNW (crop plant compatibility) (Brassica napus (BRSNW)): 20%
Post-emergence action against TRZAS (crop plant compatibility) ([5]; 1.25 g/ha): 10%
Post-emergence action against TRZAS (crop plant compatibility) ([5]; 5 g/ha): 20%
Post-emergence action against MATIN in % ([6]; dosage 1.25 g/ha): 80%
Post-emergence action against MATIN in % ([6]; dosage 5 g/ha): 90%
Post-emergence action against MATIN in % ([6]; dosage 20 g/ha): 100%
Post-emergence action against SETVI (Setaria viridis (SETVI); 20 g/ha): 100%
Post-emergence action against SETVI in % (Setaria viridis (SETVI); dosage 1.25 g/ha): 100%
Post-emergence action against SETVI in % (Setaria viridis (SETVI); dosage 5 g/ha): 100%
Post-emergence action at 1.25 g/ha against ECHCG in % [7, 9]: 100%
Post-emergence action against ECHCG in % ([7]; dosage 20 g/ha): 100%
Post-emergence action at 5 g/ha against ALOMY in % [8, 10]: 80%
Post-emergence action at 20 g/ha against ALOMY in % [8, 11]: 90%

COCCOC(=O)COc1ccccc1Sc1cc(-n2c(=O)cc(C(F)(F)F)n(C)c2=O)c(F)cc1Cl [I.1-1, 2-Methoxyethyl [2-({2-chloro-4-fluoro-5-[3-methyl-2,6-dioxo-4-(trifluoromethyl)-3,6-dihydropyrimidin-1(2H)-yl]phenyl}sulfanyl)phenoxy]acetate]
pest or weed control at 1.25 g/ha [1, 12]: 100%
pest or weed control at 5 g/ha [1, 12]: 100%
pest or weed control at 20 g/ha [1, 12]: 100%
Post-emergence action at 20 g/ha against HORMU in % (Hordeum murinum (HORMU)): 100%
pest or weed control at 1.25 g/ha (Veronica persica (VERPE); [13]): 80%
pest or weed control at 5 g/ha (Veronica persica (VERPE); [13]): 100%
pest or weed control at 20 g/ha (Veronica persica (VERPE); [13]): 100%
pest or weed control at 1.25 g/ha ([2]; Abutilon theophrasti, 504 h, read-out: Post-emergence action at 1.25 g/ha against ABUTH in %): 100%
pest or weed control at 5 g/ha ([2]; Abutilon theophrasti, 504 h, read-out: Post-emergence action at 5 g/ha against ABUTH in %): 100%
pest or weed control at 20 g/ha ([2]; Abutilon theophrasti, 504 h, read-out: Post-emergence action at 20 g/ha against ABUTH in %): 100%
pest or weed control at 1.25 g/ha ([3]; Amaranthus retroflexus, 504 h, read-out: Post-emergence action at 1.25 g/ha against AMARE in %): 90%
pest or weed control at 5 g/ha ([3]; Amaranthus retroflexus, 504 h, read-out: Post-emergence action at 5 g/ha against AMARE in %): 100%
pest or weed control at 20 g/ha ([3]; Amaranthus retroflexus, 504 h, read-out: Post-emergence action at 20 g/ha against AMARE in %): 100%
pest or weed control at 1.25 g/ha (Viola tricolor (VIOTR); [14]): 100%
pest or weed control at 5 g/ha (Viola tricolor (VIOTR); [14]): 100%
pest or weed control at 20 g/ha (Viola tricolor (VIOTR); [14]): 100%
pest or weed control at 5 g/ha [4, 15]: 100%
pest or weed control at 20 g/ha [4, 15]: 100%
pest or weed control at 20 g/ha (Avena fatua (AVEFA); Avena fatua, 504 h, read-out: Post-emergence action at 20 g/ha against AVEFA in %): 80%
Post-emergence action against STEME (Stellaria media (STEME); 1.25 g/ha): 80%
Post-emergence action against STEME (Stellaria media (STEME); 5 g/ha): 100%
Post-emergence action against STEME (Stellaria media (STEME); 20 g/ha): 100%
Post-emergence action against ORYSA (crop plant compatibility) (Oryza sativa (ORYSA); 1.25 g/ha): 10%
Post-emergence action against ORYSA (crop plant compatibility) (Oryza sativa (ORYSA); 5 g/ha): 10%
Post-emergence action against ZEAMX (crop plant compatibility) (Zea mays (ZEAMX)): 20%
Post-emergence action against GLXMA in % (Glycine max (GLXMA); 1.25 g/ha): 0%
Post-emergence action against GLXMA in % (Glycine max (GLXMA); 5 g/ha): 20%
Post-emergence action against TRZAS (crop plant compatibility) ([5]; 1.25 g/ha): 20%
pest or weed control at 5 g/ha [6, 16]: 100%
pest or weed control at 20 g/ha [6, 16]: 100%
pest or weed control at 20 g/ha (Setaria viridis (SETVI); Setaria viridis, 504 h, read-out: Post-emergence action against SETVI): 100%
pest or weed control at 1.25 g/ha (Setaria viridis (SETVI); [17]): 100%
pest or weed control at 5 g/ha (Setaria viridis (SETVI); [17]): 100%
pest or weed control at 20 g/ha ([7]; Echinochloa crus-galli, 504 h, read-out: Post-emergence action against ECHCG in %): 80%
pest or weed control at 20 g/ha ([8]; Alopecurus myosuroides, 504 h, read-out: Post-emergence action at 20 g/ha against ALOMY in %): 80%
